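Where inhibition never reached the appropriate level, the endpoint shown equals the highest concentration tested. Otherwise, values were interpolated linearly from a five-concentration, 48-hour dose response in 96-well plates. GI50 = concentration required for 50% inhibition of growth. TGI denotes the concentration required for complete inhibition of growth.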

Holding throughout (experiment): growth of human tumour cells (NCI), 48 h
Assay [1] deals with CAKI-1 renal.
Assay [2] relates to COLO 205 colon.
For assay [3], the system named is LOX IMVI melanoma.
Assay [4] relates to NCI-H23 lung.
Assay [5] deals with NCI-H522 lung.
In assay [6] the test system is OVCAR-4 ovarian.
Assay [7] relates to RXF 393 renal.
The test system of assay [8] is SF-295 CNS.
Assay [9] relates to SK-MEL-2 melanoma.
Assay [10] deals with SR leukemia.

Consider `NC(N)=NCCCCCNc1noc(Cc2c[nH]c3cc(Br)ccc23)n1`, for which the GI50 in assay [1] is 66.7 µM; in assay [2], 9.77 µM; in [3], 10.6 µM; in assay [4], 8.2 µM; in [5], 13.6 µM; in assay [6], 12.2 µM. Further, the GI50 in [7] is 20.2 µM; in assay [8] it was 17.8 µM; in [9] it was 22.8 µM; in assay [10] it was 13.8 µM. Besides, the TGI in [1] was above 100 µM; in [2] it was 28.2 µM; in assay [3], 45.2 µM; in assay [4], 28.7 µM; in [5], 46.5 µM; in assay [6] it was 91.8 µM. In addition, the TGI is above 100 µM in assay [7], 56.6 µM in [8], 57.8 µM in assay [9] and 40 µM in assay [10].
For the compound `COCCOc1cnc2ccn([C@H](C)c3nnc4c(F)cc(-c5cnn(C)c5)cn34)c(=O)c2c1`, the GI50 was above 100 µM in assay [2]; above 100 µM in assay [3]; above 100 µM in assay [4]; above 100 µM in assay [5]; 52 µM in assay [6]; above 100 µM in [7]. The GI50 is 23.4 µM in assay [8], above 100 µM in [9] and above 100 µM in [10]. In addition, the TGI in [2], in assay [3], in assay [4], in assay [5], in assay [6] and in assay [7] was above 100 µM throughout. The TGI in assay [8], in assay [9] and in [10] was above 100 µM throughout.
As for `Oc1cc(C2OCCCO2)cc(O)c1O`, the TGI in assay [1], in assay [2], in [4], in assay [5], in assay [6] and in assay [8] was above 100 µM throughout. In addition, the TGI in [9] and in assay [10] was above 100 µM in each case.
For `O=C(CSC(c1ccccc1)c1ccccc1)N/N=C/c1ccc(Cl)cc1Cl`, the GI50 in assay [1] is 38.3 µM; in [3] it was 27.1 µM; in assay [4], 21.4 µM; in assay [5] it was 12.4 µM; in assay [6], 38.8 µM; in assay [7] it was 34.4 µM. Further, the GI50 in [8] is 33.6 µM; in assay [9], 18.4 µM; in assay [10], 17 µM. In addition, the TGI is 83 µM in assay [1]; 97.4 µM in [3]; 56.9 µM in assay [4]; 59.2 µM in assay [5]; above 100 µM in assay [6]; 89.1 µM in [7]. Further, the TGI in [8] is 90.8 µM; in assay [9], 55.8 µM; in assay [10], 38.8 µM.
Consider `O=S1OC2(c3ccccc3-c3ccccc32)c2ccccc21` (centres undefined), for which the TGI in assay [2], in assay [3], in assay [4], in assay [5], in assay [6] and in [7] was above 100 µM each time. The TGI in [8] and in assay [10] was above 100 µM each time.
Consider `CCc1ccccc1NC(=O)c1sc2nc3c(cc2c1N)C(=O)CCC3`, for which the GI50 in assay [1] is 0.504 µM; in [2] it was 0.291 µM; in [3] it was 0.669 µM; in assay [4], 0.711 µM; in assay [5] it was 0.502 µM; in [6], 1.54 µM. The GI50 in [7] is 0.191 µM; in assay [8] it was 0.283 µM; in assay [10], 0.406 µM. In addition, the TGI is above 100 µM in [1]; 1.06 µM in assay [2]; above 100 µM in assay [3]; above 100 µM in [4]; above 100 µM in assay [5]; above 100 µM in assay [6]. Moreover, the TGI in [7] is 0.852 µM; in assay [8], above 88 µM; in assay [10], above 100 µM.
Turning to `COc1ccc(Nc2c3ccccc3nc3occ(Cl)c23)cc1`, the GI50 is below 0.01 µM in assay [1]; below 0.01 µM in assay [2]; 0.0549 µM in [4]; below 0.0119 µM in assay [5]; 0.73 µM in [6]; below 0.01 µM in [8]. The GI50 in assay [10] was below 0.01 µM. Moreover, the TGI in assay [1] was 16.3 µM; in assay [2], 4.89 µM; in [4], 28.8 µM; in [5], 6.92 µM; in [6] it was above 86.6 µM; in [8] it was 0.0558 µM. In assay [10], this compound gave a TGI of 8.36 µM.
For the compound `COc1ccc2ncn(-c3cc(O[C@H](C)c4ccccc4Cl)c(C(N)=O)s3)c2c1`, the GI50 in assay [1] is 0.189 µM; in [2] it was 0.00953 µM; in [3], 0.028 µM; in assay [4], 0.0197 µM; in assay [5], 0.0165 µM; in [6], 0.869 µM. In addition, the GI50 in assay [7] was 0.0105 µM; in assay [8], 0.0189 µM; in assay [10], 0.012 µM. For the same compound, the TGI in [1] was above 25 µM; in assay [2], 0.436 µM; in assay [3] it was 4.83 µM; in assay [4], above 18.3 µM; in assay [5], 0.221 µM; in [6], above 25 µM. The TGI in [7] was 3.78 µM; in [8], 7.05 µM; in assay [10] it was 1.53 µM.
As to `COc1ccc(-c2c[nH]c(=S)n2-c2ccc(OC)cc2)cc1`, the GI50 in assay [1], in assay [2], in assay [3], in assay [4], in assay [5] and in [7] was above 50 µM in each case. For the same compound, the GI50 in assay [8], in assay [9] and in assay [10] was above 50 µM throughout. For the same compound, the TGI in assay [1], in assay [2], in assay [3], in [4], in [5] and in assay [7] was above 50 µM in each case. In addition, the TGI in [8], in assay [9] and in [10] was above 50 µM throughout.
Turning to `O=c1[nH]c2cc(Cl)ccc2nc1/C(=N\O)C(O)c1ccc(Cl)cc1Cl` (centres undefined), the TGI in assay [1], in [2], in assay [3], in assay [4], in assay [5] and in assay [6] was above 100 µM each time. Moreover, the TGI in assay [7], in assay [8] and in assay [10] was above 100 µM throughout.
With `Nc1nc(CCl)nc(Nc2ccccc2)n1`, the TGI is 24.8 µM in assay [1]; 43.4 µM in [2]; 38.7 µM in assay [4]; 3.27 µM in [5]; 32.1 µM in [6]; 81.7 µM in assay [8]. Also, the figures for the TGI in assay [9] and in assay [10] were 44.1 µM and 33.7 µM, respectively.
As for `CCOC(=O)c1c[nH]c2oc(/C=N/N3CC(CN4CCOCC4)OC3=O)cc2c1=O` (centres undefined), the TGI in [1], in [2], in [3], in assay [4], in assay [6] and in assay [7] was above 100 µM in each case. The TGI in [8], in assay [9] and in [10] was above 100 µM in each case.
Regarding `O=C(Nc1ccc(CO)cc1)c1coc2ccccc2c1=O`, the GI50 in [1], in [2], in assay [3], in assay [4], in assay [5] and in assay [6] was above 100 µM throughout. The GI50 was above 100 µM in assay [7], 65.6 µM in assay [8] and above 100 µM in assay [10]. The TGI in [1], in assay [2], in [3], in assay [4], in [5] and in assay [6] was above 100 µM throughout. The TGI in assay [7], in assay [8] and in assay [10] was above 100 µM in each case.
On to `C=C1C(=O)O[C@H]2[C@H]1CC/C(COC(=O)c1ccc(Cl)nc1)=C\CC[C@@]1(C)O[C@@H]21`, for which the GI50 in assay [2] is 1.74 µM; in [3] it was 1.58 µM; in assay [4], 3.08 µM; in assay [5] it was 1.59 µM; in [6], 4.49 µM; in assay [7] it was 1.04 µM. In addition, the GI50 in assay [8] is 10.9 µM; in [9] it was 2.06 µM; in assay [10], 0.658 µM. Besides, the TGI in assay [2] was 3.96 µM; in [3], 3.33 µM; in assay [4], 12.4 µM; in [5], 3.82 µM; in assay [6], 18.4 µM; in assay [7], 2.31 µM. For the same compound, the results for the TGI in assay [8], in assay [9] and in assay [10] were 22.9 µM, 5.51 µM and 38.8 µM, respectively.
With `O=C(Nc1cc(Cl)ccc1Cl)C(=O)C(c1cnc2ccccc2n1)[N+](=O)[O-]` (centres undefined), the TGI in assay [1], in assay [2], in assay [3], in [4], in assay [5] and in [6] was above 100 µM in each case. Moreover, the TGI in assay [7], in assay [8] and in assay [10] was above 100 µM in each case.
On to `Cc1ccc(C2(O)CC(c3ccc([N+](=O)[O-])o3)=NN2C(=O)COc2ccc(Cl)cc2)cc1` (centres undefined), for which the TGI in assay [1] worked out at 67.5 µM; in assay [2] it was 15.3 µM; in assay [3], 19 µM; in assay [4] it was 11.9 µM; in [5] it was 34.2 µM; in assay [6] it was 77.9 µM. Moreover, the results for the TGI in assay [8], in assay [9] and in assay [10] were 27.6 µM, 16.1 µM and 6.52 µM, respectively.
As for `Nc1ccn(C2(CO)C=C(CO)C(O)C2O)c(=O)n1` (centres undefined), the TGI in assay [1], in [2], in [5], in assay [6], in [7] and in assay [9] was above 25.8 µM each time. The TGI in assay [10] is above 25.8 µM.
Turning to `Cc1cc(NS(=O)(=O)c2ccc(Nc3c4ccccc4nc4c(C(=O)NCCN(C)C)cccc34)cc2)no1`, the TGI in assay [2] is above 100 µM; in assay [3] it was 31.3 µM; in assay [4], above 100 µM; in assay [5], 4.56 µM; in assay [6], 57.7 µM; in [7], 22.8 µM. Moreover, the TGI in assay [8] is 47.5 µM; in [10] it was above 100 µM.
As for `CC(C)(C=O)CC(C#N)/C(=N\NC(N)=O)C(=O)Nc1ccccc1C(N)=O` (centres undefined), the TGI in assay [1], in [3], in [4], in assay [5], in assay [6] and in assay [8] was above 100 µM in each case. Besides, the TGI in [9] and in assay [10] was above 100 µM throughout.
Take `Cc1cc(N/N=C/c2nc(-c3ccc(Br)cc3)oc2C)c2cc(Br)ccc2n1`: the GI50 in assay [1] was 8.15 µM; in assay [2], 4.38 µM; in [3], 1.99 µM; in assay [4] it was 6.25 µM; in assay [5], 2.21 µM; in assay [7] it was 5 µM. The values for the GI50 in [8], in assay [9] and in assay [10] were 17.3 µM, 25.6 µM and 0.355 µM, respectively. Besides, the TGI in assay [1] was 20.6 µM; in assay [2], 22.1 µM; in [3] it was 4.3 µM; in assay [4] it was 22.8 µM; in assay [5] it was 5.62 µM; in assay [7], 19.8 µM. For the same compound, the results for the TGI in [8], in assay [9] and in [10] were 32.6 µM, 68.1 µM and above 100 µM, respectively.
Regarding `CC(C)CCCC(C)[C@H]1CCC2[C@H]3C(CC[C@@]21C)[C@@]1(C)CCC=C[C@]12C[C@@H]2[C@@H]3O` (some centres undefined), the TGI in assay [1], in assay [2], in assay [3], in [5], in assay [6] and in assay [7] was above 100 µM throughout. Moreover, the TGI in assay [8] and in assay [10] was above 100 µM throughout.

Values taken from PubChem BioAssay (NCI).
